Measurements from patent publication US20180265515A1 (Genentech, Inc., priority 2015, published 2018).

Assays:
[1] = target: T1, isolated recombinant JAK2 kinase domain (Homo sapiens, UniProt O60674); assay: JAK2 enzyme assay (Caliper LabChip, Ki); assay type: biochemical; conditions: 25 μM ATP
T1 construct: The activity of the isolated recombinant JAK1 and JAK2 kinase domain was measured
Method: (§1) JAK Enzyme Assays were Carried Out as Follows:
(§2) The activity of the isolated recombinant JAK1 and JAK2 kinase domain was measured by monitoring phosphorylation of a peptide derived from JAK3 (Val-Ala-Leu-Val-Asp-Gly-Tyr-Phe-Arg-Leu-Thr-Thr, fluorescently labeled on the N-terminus with 5-carboxyfluorescein) using the Caliper LabChip® technology (Caliper Life Sciences, Hopkinton, Mass.). […] Reactions were incubated at 22° C. in 384-well polypropylene microtiter plates for 30 minutes and then stopped by addition of 25 μL of an EDTA containing solution (100 mM HEPES buffer (pH 7.2), 0.015% Brij-35, 150 mM EDTA), resulting in a final EDTA concentration of 50 mM. After termination of the kinase reaction, the proportion of phosphorylated product was determined as a fraction of total peptide substrate using the Caliper LabChip® 3000 according to the manufacturer's specifications. Ki values were then determined using the Morrison tight binding model (Morrison, J. F., Biochim. Biophys. Acta. 185:269-296 (1969); William, J. W. and Morrison, J. F., Meth. Enzymol., 63:437-467 (1979)) modified for ATP-competitive inhibition [Ki=Ki,app/(1+[ATP]/Km,app)].

[2] = target: T2, isolated recombinant JAK1 kinase domain (Homo sapiens, UniProt P23458); assay: JAK1 enzyme assay (Caliper LabChip, Ki); assay type: biochemical; conditions: recombinant JAK1 kinase domain, 25 μM ATP
T2 construct: The activity of the isolated recombinant JAK1 and JAK2 kinase domain was measured
T2 sequence (P23458 875-1153 limits assumed): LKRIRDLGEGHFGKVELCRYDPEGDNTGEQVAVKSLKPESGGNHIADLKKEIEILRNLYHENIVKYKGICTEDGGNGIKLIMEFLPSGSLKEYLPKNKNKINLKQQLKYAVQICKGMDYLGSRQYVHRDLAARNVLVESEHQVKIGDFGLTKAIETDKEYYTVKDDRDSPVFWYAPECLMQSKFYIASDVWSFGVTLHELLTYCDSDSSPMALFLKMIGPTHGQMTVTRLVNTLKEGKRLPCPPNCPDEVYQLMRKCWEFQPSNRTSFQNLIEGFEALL
Method: as §1, §2

[3] = test system: JAK1-dependent STAT6 phosphorylation downstream of IL-13 stimulation in BEAS-2B human bronchial epithelial cells; assay: JAK1 pathway assay in BEAS-2B cells (IL-13 stimulated STAT6 phosphorylation, MSD); assay type: cell-based; conditions: read-out: P-STAT6 BEAS2B + IL13 IC50
Method: JAK1 Pathway Assay in Cell Lines was Carried Out as Follows:
Inhibitor potency (EC50) was determined in cell-based assays designed to measure JAK1 dependent STAT phosphorylation. As noted above, inhibition of IL-4, IL-13, and IL-9 signaling by blocking the Jak/Stat signaling pathway can alleviate asthmatic symptoms in pre-clinical lung inflammation models (Mathew et al., 2001, J Exp Med 193(9): 1087-1096; Kudlacz et. al., 2008, Eur J. Pharmacol 582(1-3): 154-161).
In one assay approach, TF-1 human erythroleukemia cells obtained from the American Type Culture Collection (ATCC; Manassas, Va.) were used to measure JAK1-dependent STAT6 phosphorylation downstream of IL-13 stimulation. Prior to use in the assays, TF-1 cells were starved of GM-CSF overnight in OptiMEM medium (Life Technologies, Grand Island, N.Y.) supplemented with 0.5% charcoal/dextran stripped fetal bovine serum (FBS), 0.1 mM non-essential amino acids (NEAA), and 1 mM sodium pyruvate. The assays were run in 384-well plates in serum-free OptiMEM medium using 300,000 cells per well. In a second assay approach, BEAS-2B human bronchial epithelial cells obtained from ATCC were plated at 100,000 cells per well of a 96-well plate one day prior to the experiment. The BEAS-2B assay was run in complete growth medium (bronchial epithelial basal medium plus bulletkit; Lonza; Basel, Switzerland).
Test compounds were serially diluted 1:2 in DMSO and then diluted 1:50 in medium just before use. Diluted compounds were added to the cells, for a final DMSO concentration of 0.2%, and incubated for 30 min (for the TF-1 assay) or 1 hr (for the BEAS-2B assay) at 37° C. Then, cells were stimulated with human recombinant cytokine at their respective EC90 concentrations, as previously determined for each individual lot. Cells were stimulated with IL-13 (R&D Systems, Minneapolis, Minn.) for 15 min at 37° C. The TF-1 cell reactions were stopped by the direct addition of 10× lysis buffer (Cell Signaling Technologies, Danvers, Mass.), whereas the BEAS-2B cell incubations were halted by the removal of medium and addition of 1× lysis buffer. The resultant samples were frozen in the plates at −80° C. Compound mediated inhibition of STAT6 phosphorylation was measured in the cell lysates using MesoScale Discovery (MSD) technology (Gaithersburg, Md.). EC50 values were determined as the concentration of compound required for 50% inhibition of STAT phosphorylation relative to that measured for the DMSO control.

T1 sequence (O60674 849-1124 limits assumed): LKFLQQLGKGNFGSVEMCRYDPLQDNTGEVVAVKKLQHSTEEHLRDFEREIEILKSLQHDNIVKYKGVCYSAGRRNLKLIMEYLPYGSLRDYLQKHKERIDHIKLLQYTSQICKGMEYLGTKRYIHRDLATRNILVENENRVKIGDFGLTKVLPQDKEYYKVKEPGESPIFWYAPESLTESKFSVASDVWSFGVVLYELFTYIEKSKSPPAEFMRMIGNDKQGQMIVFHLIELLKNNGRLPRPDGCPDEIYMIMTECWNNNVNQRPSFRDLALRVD

Ki [1] | Ki [2] | SMILES | IC50 [3]
0.041 nM | 0.079 nM | CSc1ccc(OC(F)F)c(-c2n[nH]cc2NC(=O)c2cnn3cccnc23)c1 [Example 1, N-(3-(2-(difluoromethoxy)-5-(methylthio)phenyl)-1H-pyrazol-4-yl)pyrazolo[1,5-a]pyrimidine-3-carboxamide] | 2.6 nM
0.42 nM | 0.28 nM | CSc1ccc(OC(F)F)c(-c2nn(CC(=O)N3CCC(N(C)CCC#N)CC3)cc2NC(=O)c2cnn3cccnc23)c1 [Example 2, N-[1-[2-[4-[2-cyanoethyl(methyl)amino]-1-piperidyl]-2-oxo-ethyl]-3-[2-(difluoromethoxy)-5-methylsulfanyl-phenyl]pyrazol-4-yl]pyrazolo[1,5-a]pyrimidine-3-carboxamide] | 25 nM
0.57 nM | 1.7 nM | C[S+]([O-])c1ccc(OC(F)F)c(-c2n[nH]cc2NC(=O)c2cnn3cccnc23)c1 (stereo not drawn) [Example 3, N-[3-[2-(difluoromethoxy)-5-methylsulfinyl-phenyl]-1H-pyrazol-4-yl]pyrazolo[1,5-a]pyrimidine-3-carboxamide] | 430 nM
0.16 nM | 0.45 nM | CS(=O)(=O)c1ccc(OC(F)F)c(-c2n[nH]cc2NC(=O)c2cnn3cccnc23)c1 [Example 4, N-[3-[2-(difluoromethoxy)-5-methylsulfonyl-phenyl]-1H-pyrazol-4-yl]pyrazolo[1,5-a]pyrimidine-3-carboxamide] | 35 nM
0.4 nM | 0.29 nM | CSc1ccc(OC(F)F)c(-c2nn(CC(=O)N3CCC(N4CCOCC4)CC3)cc2NC(=O)c2cnn3cccnc23)c1 [Example 5, N-(3-(2-(difluoromethoxy)-5-(methylthio)phenyl)-1-(2-(4-morpholinopiperidin-1-yl)-2-oxoethyl)-1H-pyrazol-4-yl)pyrazolo[1,5-a]pyrimidine-3-carboxamide] | 15 nM
0.61 nM | 0.49 nM | CCN1CCN(C(=O)Cn2cc(NC(=O)c3cnn4cccnc34)c(-c3cc(SC)ccc3OC(F)F)n2)CC1 [Example 6, N-[3-[2-(difluoromethoxy)-5-methylsulfanyl-phenyl]-1-[2-(4-ethylpiperazin-1-yl)-2-oxo-ethyl]pyrazol-4-yl]pyrazolo[1,5-a]pyrimidine-3-carboxamide] | 18 nM
0.49 nM | 0.3 nM | CSc1ccc(OC(F)F)c(-c2nn(CC(=O)N3CCC(CN4CCOCC4)CC3)cc2NC(=O)c2cnn3cccnc23)c1 [Example 7, N-[3-[2-(difluoromethoxy)-5-methylsulfanyl-phenyl]-1-[2-[4-(morpholinomethyl)-1-piperidyl]-2-oxo-ethyl]pyrazol-4-yl]pyrazolo[1,5-a]pyrimidine-3-carboxamide] | 4.8 nM
0.39 nM | 0.29 nM | CSc1ccc(OC(F)F)c(-c2nn(CC(=O)N3CCC(NCCC#N)CC3)cc2NC(=O)c2cnn3cccnc23)c1 [Example 8, N-[1-[2-[4-(2-cyanoethylamino)-1-piperidyl]-2-oxo-ethyl]-3-[2-(difluoromethoxy)-5-methylsulfanyl-phenyl]pyrazol-4-yl]pyrazolo[1,5-a]pyrimidine-3-carboxamide] | 18 nM
0.28 nM | 0.44 nM | CSc1ccc(OC(F)F)c(-c2nn([C@H]3CCCNC3)cc2NC(=O)c2cnn3cccnc23)c1 [Example 9, N-[3-[2-(difluoromethoxy)-5-methylsulfanyl-phenyl]-1-[(3S)-3-piperidyl]pyraxol-4-yl]pyrazolo[1,5-a]pyrimidine-3-carboxamide] | 5.2 nM
0.27 nM | 0.49 nM | CSc1ccc(OC(F)F)c(-c2nn(CCN[C@H]3CCOC3)cc2NC(=O)c2cnn3cccnc23)c1 [Example 10, N-[3-[2-(difluoromethoxy)-5-methylsulfanyl-phenyl]-1-[2-[[(3S)-tetrahydrofuran-3-yl]amino]ethyl]pyrazol-4-yl]pyrazolo[1,5-a]pyrimidine-3-carboxamide] | 8.8 nM
0.21 nM | 0.32 nM | CSc1ccc(OC(F)F)c(-c2nn(CCN[C@@H]3CCOC3)cc2NC(=O)c2cnn3cccnc23)c1 [Example 11, (R)—N-(3-(2-(difluoromethoxy)-5-(methylthio)phenyl)-1-(2-((tetrahydrofuran-3-yl)amino)ethyl)-1H-pyrazol-4-yl)pyrazolo[1,5-a]pyrimidine-3-carboxamide] | 5.9 nM
0.32 nM | 0.41 nM | CSc1ccc(OC(F)F)c(-c2nn([C@H]3CCCN(C)C3)cc2NC(=O)c2cnn3cccnc23)c1 [Example 12, (S)—N-(3-(2-(difluoromethoxy)-5-(methylthio)phenyl)-1-(1-methylpiperidin-3-yl)-1H-pyrazol-4-yl)pyrazolo[1,5-a]pyrimidine-3-carboxamide] | 6 nM
0.9 nM | 0.44 nM | CSc1ccc(OC(F)F)c(-c2nn(CC(=O)N3CCC(N(C)CC(=O)N(C)C)CC3)cc2NC(=O)c2cnn3cccnc23)c1 [Example 13, N-[3-[2-(difluoromethoxy)-5-methylsulfanyl-phenyl]-1-[2-[4-[[2-(dimethylamino)-2-oxo-ethyl]-methyl-amino]-1-piperidyl]-2-oxo-ethyl]pyrazol-4-yl]pyrazolo[1,5-a]pyrimidine-3-carboxamide] | 57 nM
0.68 nM | 0.32 nM | CSc1ccc(OC(F)F)c(-c2nn(CC(=O)N3CCC(N(C)CC(=O)N4CCCC4)CC3)cc2NC(=O)c2cnn3cccnc23)c1 [Example 14] | 89 nM
0.38 nM | 0.28 nM | CSc1ccc(OC(F)F)c(-c2nn(CC(=O)N3CCC(N4CCNC(=O)C4)CC3)cc2NC(=O)c2cnn3cccnc23)c1 [Example 15, N-[3-[2-(difluoromethoxy)-5-methylsulfanyl-phenyl]-1-[2-oxo-2-[4-(3-oxopiperazin-1-yl)-1-piperidyl]ethyl]pyrazol-4-yl]pyrazolo[1,5-a]pyrimidine-3-carboxamide] | 310 nM
0.5 nM | 0.39 nM | CSc1ccc(OC(F)F)c(-c2nn(CC(=O)N3CCN(CCN4CCOCC4)CC3)cc2NC(=O)c2cnn3cccnc23)c1 [Example 16, N-[3-[2-(difluoromethoxy)-5-methylsulfanyl-phenyl]-1-[2-[4-(2-morpholinoethyl)piperazin-1-yl]-2-oxo-ethyl]pyrazol-4-yl]pyrazolo[1,5-a]pyrimidine-3-carboxamide] | 18 nM
0.53 nM | 0.27 nM | CSc1ccc(OC(F)F)c(-c2nn(CC(=O)N3CCC(N(C)CCCC#N)CC3)cc2NC(=O)c2cnn3cccnc23)c1 [Example 17, N-[1-[2-[4-[3-cyanopropyl(methyl)amino]-1-piperidyl]-2-oxo-ethyl]-3-[2-(difluoromethoxy)-5-methylsulfanyl-phenyl]pyrazol-4-yl]pyrazolo[1,5-a]pyrimidine-3-carboxamide] | 5 nM
0.37 nM | 0.24 nM | CSc1ccc(OC(F)F)c(-c2nn(CC(=O)N3CCC(N4CCC(C#N)CC4)CC3)cc2NC(=O)c2cnn3cccnc23)c1 [Example 18, N-[1-[2-[4-(4-cyano-1-piperidyl)-1-piperidyl]-2-oxo-ethyl]-3-[2-(difluoromethoxy)-5-methylsulfanyl-phenyl]pyrazol-4-yl]pyrazolo[1,5-a]pyrimidine-3-carboxamide] | 6 nM
